Here are results for 12 compounds from US8048879B2, “Substituted 4,5,6,7-tetrahydro-isoxazolo[4,5-c]pyridine compounds and use thereof for producing medicaments” (Gruenenthal GmbH, priority 2005, dated 2011).

Each structure is given as a SMILES string.

T1 sequence (P31652 whole entry): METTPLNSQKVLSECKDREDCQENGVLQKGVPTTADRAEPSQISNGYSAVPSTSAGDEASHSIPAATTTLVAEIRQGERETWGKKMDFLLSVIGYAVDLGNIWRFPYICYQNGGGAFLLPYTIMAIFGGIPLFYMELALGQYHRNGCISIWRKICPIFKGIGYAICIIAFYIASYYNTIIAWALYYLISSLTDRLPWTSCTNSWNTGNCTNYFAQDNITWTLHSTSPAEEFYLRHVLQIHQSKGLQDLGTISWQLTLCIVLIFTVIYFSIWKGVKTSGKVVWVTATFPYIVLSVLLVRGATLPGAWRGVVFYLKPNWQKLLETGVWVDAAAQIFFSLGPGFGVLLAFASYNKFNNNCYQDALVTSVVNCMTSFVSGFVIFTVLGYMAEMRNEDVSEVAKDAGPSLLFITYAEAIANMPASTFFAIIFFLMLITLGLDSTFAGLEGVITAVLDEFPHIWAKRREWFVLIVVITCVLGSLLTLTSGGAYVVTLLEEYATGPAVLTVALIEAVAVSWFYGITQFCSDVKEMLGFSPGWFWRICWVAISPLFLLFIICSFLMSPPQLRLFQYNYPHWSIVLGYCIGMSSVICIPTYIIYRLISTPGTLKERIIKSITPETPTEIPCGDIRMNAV

This assay concerns the target T1, 5-HT transporter (Rattus norvegicus, UniProt P31652).
T1 construct: from tissue; host or cells: rat brain (medulla and pons), synaptosomes, P2 fraction
The experiment in a line: 5-HT uptake inhibition, synaptosomes from rat brain (medulla and pons). The assay is classed as biochemical. A digest of the protocol:
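Freshly isolated rat brain synaptosomes (P2 fraction): hypothalamus for NA uptake, medulla/pons for 5-HT uptake. Uptake of [3H]-NA (7.5 min) or [3H]-5-HT (5 min) at room temperature under O2, stopped by filtration over GF/B. Retained radioactivity counted by scintillation.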
With `O=C(c1noc2c1CN(S(=O)(=O)c1ccc(F)cc1)CC2)N1CC=C(c2ccc(F)cc2)CC1` [Example 42, [5-(4-fluoro-benzenesulfonyl)-4,5,6,7-tetrahydro-isoxazolo[4,5-c]pyridin-3-yl]-[4-(4-fluorophenyl)-3,6-dihydro-2H-pyridin-1-yl]-methanone], testing at 10 µM gave an inhibition of 69%.

`O=C(c1noc2c1CN(S(=O)(=O)c1cc(Cl)ccc1Cl)CC2)N1CCC(CNC(=O)C(F)(F)F)CC1` [Example 83, N-{1-[5-(2,5-dichloro-benzenesulfonyl)-4,5,6,7-tetrahydro-isoxazolo[4,5-c]pyridine-3-carbonyl]-piperidin-4-ylmethyl}-2,2,2-trifluoroacetamide] registered an inhibition at 10 µM of 61%.

Turning to `CN(C)CCNC(=O)c1noc2c1CN(C(=O)CCCOc1ccccc1)CC2` [Example 99, 5-(4-phenoxy-butyryl)-4,5,6,7-tetrahydro-isoxazolo[4,5-c]pyridine-3-carboxylic acid (2-dimethylamino-ethyl) amide], at 10 µM the inhibition was 69%.

For `CN(C)CCNC(=O)c1noc2c1CN(C(=O)c1cccc(OC(F)(F)F)c1)CC2` [Example 119, 5-(3-trifluoromethoxy-benzoyl)-4,5,6,7-tetrahydro-isoxazolo[4,5-c]pyridine-3-carboxylic acid (2-dimethylamino-ethyl) amide], the inhibition at 10 µM amounted to 73%.

As to `COc1ccc(S(=O)(=O)N2CCc3onc(C(=O)NC(CCC(=O)OC(C)(C)C)C(N)=O)c3C2)cc1` (stereo not drawn) [Example 88, 4-carbamoyl-4-{[5-(4-methoxy-benzenesulfonyl)-4,5,6,7-tetrahydro-isoxazolo[4,5-c]pyridine-3-carbonyl]-amino}-butanoic acid tert-butyl ester], 10 µM produced 62% inhibition.

On to `COCCNC(=O)c1noc2c1CN(C(=O)Nc1ccc(C)c([N+](=O)[O-])c1)CC2` [Example 5, 6,7-dihydro-4H-isoxazolo[4,5-c]pyridine-3,5-dicarboxylic acid 3-[(2-methoxy-ethyl) amide]5-[(4-methyl-3-nitro-phenyl) amide]], for which the “5-HT uptake (rat), 10 μM, % inhibition” value is 47%.

Compound `COc1ccc(C(C)NC(=O)c2noc3c2CN(S(=O)(=O)c2ccc(OC)cc2)CC3)cc1` (stereo not drawn) [Example 84, 5-(4-methoxy-benzenesulfonyl)-4,5,6,7-tetrahydro-isoxazolo[4,5-c]pyridine-3-carboxylic acid [1-(4-methoxyphenyl)-ethyl] amide] gave an inhibition at 10 µM of 69%.

`COc1ccc(S(=O)(=O)N2CCc3onc(C(=O)N4CCN(C(C)=O)CC4)c3C2)cc1` [Example 55, 1-{4-[5-(4-methoxy-benzenesulfonyl)-4,5,6,7-tetrahydro-isoxazolo[4,5-c]pyridine-3-carbonyl]-piperazin-1-yl}-ethanone] gave an inhibition at 10 µM of 68%.

For the compound `COC(=O)CCCC(=O)N1CCc2onc(C(=O)NCc3ccc(F)cc3)c2C1` [Example 78, 5-[3-(4-fluoro-benzylcarbamoyl)-6,7-dihydro-4H-isoxazolo[4,5-c]pyridin-5-yl]-5-oxo-pentanoic acid methyl ester], the inhibition at 10 µM turned out to be 70%.

The compound `CN(C)S(=O)(=O)N1CCc2onc(C(=O)NCCc3ccc(Cl)cc3)c2C1` [Example 76, 5-dimethylsulfamoyl-4,5,6,7-tetrahydro-isoxazolo[4,5-c]pyridine-3-carboxylic acid [2-(4-chlorophenyl)-ethyl] amide] displayed an inhibition at 10 µM of 63%.

With `CCOC(=O)CCNC(=O)c1noc2c1CN(C(=O)Nc1cc(OC)ccc1OC)CC2` [Example 20, 3-{[5-(2,5-dimethoxy-phenylcarbamoyl)-4,5,6,7-tetrahydro-isoxazolo[4,5-c]pyridine-3-carbonyl]-amino}-propionic acid ethyl ester], 10 µM produced 51% inhibition.

`Cc1ccc(S(=O)(=O)N2CCc3onc(C(=O)NC4CCN(Cc5c(Cl)cccc5Cl)C4)c3C2)cc1` (stereo not drawn) [Example 91, 5-(toluene-4-sulfonyl)-4,5,6,7-tetrahydro-isoxazolo[4,5-c]pyridine-3-carboxylic acid [1-(2,6-dichloro-benzyl)-pyrrolidin-3-yl] amide] had an inhibition at 10 µM of 67%.
